For 2 molecules, Activity results are on record in ChEMBL document CHEMBL2074107, “Zoledronic acid is synergic with vinblastine to induce apoptosis in a multidrug resistance protein-1 dependent way: an in vitro study” (Cell Biol Int, 2006).

In the data set the target is Multidrug resistance-associated protein 1 (Homo sapiens, UniProt P33527). Nature of the data set: TP_TRANSPORTER: inhibition of apoptosis in hMRP1-expressing HEK293 cells. The data set is classed as functional, cell-based.
Sequence of Multidrug resistance-associated protein 1 (P33527 whole entry): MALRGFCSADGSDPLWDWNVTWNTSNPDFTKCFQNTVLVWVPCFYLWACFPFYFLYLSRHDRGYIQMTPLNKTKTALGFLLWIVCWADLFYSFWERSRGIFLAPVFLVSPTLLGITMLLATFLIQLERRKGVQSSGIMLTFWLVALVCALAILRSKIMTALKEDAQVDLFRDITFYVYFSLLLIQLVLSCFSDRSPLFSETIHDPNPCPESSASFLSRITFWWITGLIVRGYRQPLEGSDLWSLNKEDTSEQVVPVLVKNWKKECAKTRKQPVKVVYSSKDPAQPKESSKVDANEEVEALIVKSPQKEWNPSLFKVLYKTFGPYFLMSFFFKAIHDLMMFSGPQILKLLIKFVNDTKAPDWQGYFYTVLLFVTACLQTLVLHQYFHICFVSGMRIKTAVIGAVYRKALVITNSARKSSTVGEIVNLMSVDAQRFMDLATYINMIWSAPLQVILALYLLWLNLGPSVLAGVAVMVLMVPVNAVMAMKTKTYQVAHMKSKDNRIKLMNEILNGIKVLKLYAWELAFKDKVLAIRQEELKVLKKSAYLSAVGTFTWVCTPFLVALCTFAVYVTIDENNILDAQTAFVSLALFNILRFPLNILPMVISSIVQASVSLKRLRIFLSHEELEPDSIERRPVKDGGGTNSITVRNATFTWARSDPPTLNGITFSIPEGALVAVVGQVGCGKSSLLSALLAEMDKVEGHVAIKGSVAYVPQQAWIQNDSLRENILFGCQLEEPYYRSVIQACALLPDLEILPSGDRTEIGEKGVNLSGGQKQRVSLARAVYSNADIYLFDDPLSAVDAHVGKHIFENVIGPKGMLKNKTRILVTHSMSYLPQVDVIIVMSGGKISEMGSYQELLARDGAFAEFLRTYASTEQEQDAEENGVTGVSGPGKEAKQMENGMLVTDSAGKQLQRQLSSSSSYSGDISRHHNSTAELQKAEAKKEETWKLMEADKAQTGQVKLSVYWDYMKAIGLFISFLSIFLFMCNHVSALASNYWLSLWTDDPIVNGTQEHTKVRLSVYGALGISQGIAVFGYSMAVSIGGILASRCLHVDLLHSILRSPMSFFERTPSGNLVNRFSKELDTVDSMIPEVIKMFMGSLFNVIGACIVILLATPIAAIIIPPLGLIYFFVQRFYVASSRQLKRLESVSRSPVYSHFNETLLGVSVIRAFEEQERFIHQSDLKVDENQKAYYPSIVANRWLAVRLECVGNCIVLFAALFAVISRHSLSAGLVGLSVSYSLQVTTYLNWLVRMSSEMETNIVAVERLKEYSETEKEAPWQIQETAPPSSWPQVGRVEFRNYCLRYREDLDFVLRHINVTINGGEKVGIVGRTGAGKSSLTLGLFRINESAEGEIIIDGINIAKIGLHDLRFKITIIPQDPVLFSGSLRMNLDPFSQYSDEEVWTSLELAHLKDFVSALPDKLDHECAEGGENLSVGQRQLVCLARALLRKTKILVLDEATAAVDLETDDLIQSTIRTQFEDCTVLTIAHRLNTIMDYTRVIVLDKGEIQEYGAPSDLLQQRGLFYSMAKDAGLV

With `CC[C@]1(O)C[C@@H]2CN(CCc3c([nH]c4ccccc34)[C@@](C(=O)OC)(c3cc4c(cc3OC)N(C)[C@H]3[C@@](O)(C(=O)OC)[C@H](OC(C)=O)[C@]5(CC)C=CCN6CC[C@]43[C@@H]65)C2)C1` [VINBLASTINE], the Activity entry was “substrate []”. The same measure for `O.O=P(O)(O)C(O)(Cn1ccnc1)P(=O)(O)O` [ZOLEDRONIC ACID]: “substrate []”.
